Inhibition and IC50 data for 46 compounds are collected here from PubChem BioAssay AID652148 (Molecular Libraries Program, Specialized Chemistry Center, …, 2013).

The target in the test is Rho GTPase-activating protein 1 (Homo sapiens) (UniProt Q07960). The test can be described thus: ARHGAP1 GAP activity inhibitors on Rac1 – biochemical, Biomol green phosphate read-out, selectivity assay for MgcRacGAP inhibitor project, dose response (AID 652148). The following applies: p50RhoGAP-stimulated Rac1 GTP hydrolysis; for inhibition: at 100 µM (top of the series).
Chain of Rho GTPase-activating protein 1 (Homo sapiens) (Q07960 whole entry, looked up): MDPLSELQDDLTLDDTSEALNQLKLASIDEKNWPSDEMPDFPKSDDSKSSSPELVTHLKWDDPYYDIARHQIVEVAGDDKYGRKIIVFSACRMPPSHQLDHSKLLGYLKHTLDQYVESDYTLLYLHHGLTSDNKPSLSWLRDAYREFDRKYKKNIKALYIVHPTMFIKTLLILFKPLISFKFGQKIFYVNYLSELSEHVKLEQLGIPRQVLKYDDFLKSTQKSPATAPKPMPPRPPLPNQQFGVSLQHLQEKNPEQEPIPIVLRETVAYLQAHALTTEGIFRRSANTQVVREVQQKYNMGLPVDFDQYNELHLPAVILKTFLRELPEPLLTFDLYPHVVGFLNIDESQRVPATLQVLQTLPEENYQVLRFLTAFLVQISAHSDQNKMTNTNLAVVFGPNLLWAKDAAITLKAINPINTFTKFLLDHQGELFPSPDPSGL

The source made the active and inactive calls. No rule for the calls is given here.

Consider `CC1=NNC(=O)C1Br` (stereo unspecified), for which the inhibition entry was “inactive”. The same measure, in the same setting: as for `O=c1c2sc3ccccc3c2[nH]c(=S)n1CCN1CCOCC1`, the entry is “inactive”. What is called IC50 is the concentration that inhibits the measured activity by half. In the case of `O=C1NC(=S)N(c2ccccc2)C(=O)/C1=C/c1ccco1`, the IC50 came to 3.99 µM. Regarding `COc1ccc(/C=N/Nc2cc(C)nc3ccc(OC)cc23)c(OC)c1`, the inhibition entry was “inactive”. Take `O=c1c2cc(F)ccc2sn1-c1ccccc1`: the IC50 amounted to 2.06 µM. As for `COc1ccc(NC2CCCN(C(=O)C3(C)CCCCC3)C2)cc1` (stereo unspecified), the inhibition result is “inactive”. In the case of `Cn1ccc(=Nc2ccc(NC(=O)c3ccc(N=c4ccn(C)c5ccc([N+](=O)[O-])cc45)cc3)cc2)cc1`, the IC50 came out at 22.2 µM. Same read-out and setting: as for `O=C1C=CC(=O)c2c(O)c(N3CCN(CCOCCO)CC3)c(Br)c(O)c21`, the figure is 32.6 µM. For the compound `Nc1n[nH]c(=S)n1/N=C1/C(=O)Nc2ccccc21`, the inhibition entry is “inactive”.

As for `CC(=O)Nc1ccc2sn(-c3ccccc3)c(=O)c2c1`, the IC50 turned out to be 22.3 µM. As for `COc1ccc(-n2sc3ccc(F)cc3c2=O)cc1`, the IC50 is 15 µM. Consider `O=c1c2ccccc2sn1-c1ccc(Cl)cc1Cl`, for which the inhibition entry was “inactive”. Regarding `CSc1nc(N)c(N=Nc2ccc([As](=O)(O)O)cc2)c(=O)[nH]1`, the IC50 amounted to 3.09 µM. As for `O=c1c2ccccc2sn1-c1ccc(Cl)cc1`, the IC50 is 12.3 µM.

As to `Cc1c(Cl)sn(-c2ccc(Cl)cc2)c1=O`, the inhibition entry is “inactive”. As for `O=C(O)c1cc(N2N=C(C(F)(F)F)/C(=C/C=C/c3ccco3)C2=O)ccc1Cl`, the IC50 is 4.68 µM. Same read-out and setting: then `Cc1cc(C)c2c(=N)c3ccccc3n(CCCCCCCCn3c4ccccc4c(=N)c4c(C)cc(C)nc43)c2n1`, with 22.2 µM.

Take `CN(C)c1ccc(/C=C/c2cc[n+](C)c3ccccc23)cc1`: the inhibition entry is “inactive”. Regarding `CCN1CCN(Cc2ccc(NC(=O)c3ccc(C)c(/C=C/c4cnc(Nc5cc(N6CCNCC6)nc(C)n5)cn4)c3)cc2C(F)(F)F)CC1`, the IC50 worked out at 54.1 µM. Consider `Cc1ccc(C)c(-n2sc3ccc(F)cc3c2=O)c1`, for which the inhibition entry is “inactive”. Take `O=c1c2cc(F)ccc2sn1-c1ccccc1Cl`: the IC50 was determined as 24.5 µM.

As to `O=C(Nc1ccccc1Cl)/C(Cl)=C(\Cl)S(=O)c1ccccc1` (stereo unspecified), the IC50 turned out to be 20.7 µM. As for `O=C(O)c1cc(N2C(=O)C=CC2=O)cc(N2C(=O)C=CC2=O)c1`, the inhibition result was “inactive”. As for `O=C(O)c1cccc(-n2sc3ccccc3c2=O)c1`, the IC50 was 10.3 µM. `CC1OC(CC(=O)O)CC2=C1C(=O)c1c(O)cccc1C2=O` (stereo unspecified): the IC50 came to 8.81 µM. Still for that read-out and setting: then `CN(C)c1ncc(C2=C(Cl)C(=O)C(N3CCCC3)=C(Cl)C2=O)s1`, with 10.7 µM. Take `Cc1cc(N)c2cc(NC(=O)/C=C/c3ccccc3Cl)ccc2n1`: the inhibition result was “inactive”. As to `O=c1c2ccccc2sn1-c1ccccc1F`, the inhibition result was “inactive”.

Turning to `COc1ccc(-n2sc3ccccc3c2=O)cc1`, the inhibition entry is “inactive”. Same read-out and setting: then `O=c1c2ccc(F)cc2sn1-c1ccccc1`, with “inactive”; and `COc1ccc(Nc2ccc3ccccc3c2)cc1`, with “inactive”. `CN(C)c1nc(=NCc2cccs2)ss1`: the IC50 came out at 14.7 µM. With `COC(=O)c1cccc(-n2sc3ccccc3c2=O)c1`, the inhibition entry is “inactive”. Same read-out and setting: then `C[n+]1c(-c2ccc(C=NNC(=O)c3ccc(C(=O)NN=Cc4ccc(-c5cn6ccccc6[n+]5C)cc4)cc3)cc2)cn2ccccc21`, with “inactive”. As to `Nc1ccc(OCc2ccco2)cc1`, the inhibition result is “inactive”. Same read-out and setting: as for `Cc1ccc(-n2sc3cc(F)ccc3c2=O)c(C)c1`, the entry is “inactive”. Regarding `O=C1C(SCCO)=C(SCCO)C(=O)c2ccccc21`, the inhibition result is “inactive”. In the case of `O=c1c2ccccc2sn1-c1cccc(Cl)c1`, the IC50 was 11.2 µM. On the same count and under the same terms, then `O=C1C(Cl)=C(NC(=O)c2ccccc2)C(=O)C(Cl)=C1NC(=O)c1ccccc1`, with 46 µM; and `O=C1C(=Cc2ccco2)CCC1=Cc1ccco1`, with 26.8 µM. Same read-out and setting: then `O=c1c2ccccc2sn1-c1ccc(F)cc1`, with 35.4 µM; and `CCN(CC)c1ccc(C(=C2C=CC(=[N+](CC)CC)C=C2)c2ccc(N(CC)CC)cc2)cc1`, with 22.1 µM. Still for that read-out and setting: then `O=C1C=CC(=O)N1c1ccccc1N1C(=O)C=CC1=O`, with 15.7 µM; and `O=C(O)C1CSC(c2ccco2)N1` (stereo unspecified), with 16.1 µM. For `O=C1C=CC(=O)c2c(O)c(N3CCN(CCO)CC3)c(Cl)c(O)c21`, the IC50 worked out at 36.5 µM. Regarding `CN(C)c1ccc(C=c2c3cc(O)ccc3n3c2cc(-c2ccccc2)[n+]3C)cc1`, the IC50 is 36.2 µM.
